Values quoted from earlier work in patent US5484728A (priority 1994, dated 1996).

CCOP(=S)(OCC)Oc1cc(C)nc(C(C)C)n1 [diazinon]
half-life of diazinon in soil without enzyme present: 226 h
